Target: Coagulation factor VII (Homo sapiens) (UniProt P08709)
Test: Inhibition of human FVIIa

Coagulation factor VII (Homo sapiens), sequence (P08709 whole entry, looked up): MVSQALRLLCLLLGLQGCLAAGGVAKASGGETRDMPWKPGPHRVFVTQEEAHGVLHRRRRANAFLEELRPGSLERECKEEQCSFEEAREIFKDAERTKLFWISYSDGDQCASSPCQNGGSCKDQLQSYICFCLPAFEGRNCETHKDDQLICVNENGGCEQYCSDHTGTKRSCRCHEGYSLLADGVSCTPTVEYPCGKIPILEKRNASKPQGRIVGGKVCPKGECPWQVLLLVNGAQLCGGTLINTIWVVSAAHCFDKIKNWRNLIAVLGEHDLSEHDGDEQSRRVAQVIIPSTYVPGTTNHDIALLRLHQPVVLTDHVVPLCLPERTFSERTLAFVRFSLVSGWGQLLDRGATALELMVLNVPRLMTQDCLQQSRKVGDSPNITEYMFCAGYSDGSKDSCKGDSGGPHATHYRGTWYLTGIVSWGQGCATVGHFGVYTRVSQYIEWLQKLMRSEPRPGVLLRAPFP

Row | Ki [µM] | Compound
1 | > 50 | N=C(N)c1ccc(CNC(=O)[C@@H]2Cc3ccc(cc3)NC(=O)CCN3CCN(CCC(=O)Nc4ccc(cc4)C[C@@H](NS(=O)(=O)Cc4ccccc4)C(=O)N2)CC3)cc1
2 | > 30 | N=C(N)c1ccc(CNC(=O)[C@@H]2Cc3ccc(cc3)NC(=O)CN3CCN(CC3)CC(=O)Nc3ccc(cc3)C[C@@H](NS(=O)(=O)Cc3ccccc3)C(=O)N2)cc1

Source: BindingDB's records for doi:10.1021/jm3012917 (Philipps University Marburg, 2013)
